The text below walks through data of patent US5273985A, “Glycerin derivative and its pharmacological use” (Eisai Co., Ltd., priority 1988, dated 1993).

Assay [1] relates to platelet agglutination caused by PAF. Kind of assay: Inhibition of platelet agglutination caused by human PAF (platelet-rich plasma, optical method of Born). The assay is classed as cell-based. Conditions: PAF at minimum concentration for maximum agglutination, read-out: Agglutination inhibiting activity IC50. Here is the method:
Effect on the Agglutination Caused by Human PAF
One part by volume of a 3.8% sodium citrate solution was added to 9 parts by volume of blood sampled from the forearm of a healthy adult to whom had been administered no medicine for at least two weeks. A platelet-rich plasma (PRP) was prepared by centrifugation. The inhibition of the platelet agglutination was determined by an optical method of Born et al. with a Hematolaser II® (a platelet agglutination meter of Niko Bioscience Co.). PAF was dissolved in Tyrode solution [Ca^++ (+)] to form a solution having the minimum concentration for causing the maximum agglutination. The test compound was dissolved in a physiological saline.
The agglutination inhibiting activity of the test compound was determined from the rate of inhibition of the maximum light transmittance (maximum agglutination rate) caused by PAF in control PRP. IC50 was determined from the inhibition curve.
The numeral in the column of the Test compound in Table 1 refers to the Example number of the compound.

In a further assay the target is T1, Human PAF Receptor (Homo sapiens, UniProt P25105).
T1 construct: The platelets were sampled from healthy males by an ordinary method; endogenous in cells; host or cells: human platelets from healthy males (intact platelet suspension)
Kind of assay: Human PAF receptor binding assay (3H-PAF, platelets). The following applies: 3H-PAF 0.6 to 1 nM, 37° C., read-out: PAF receptor antagonism IC50. Here is the method: Human PAF Receptor Binding Assay
The platelets were sampled from healthy males by an ordinary method and suspended in a binding buffer [10 mM phosphate-buffered saline (pH 7.0) containing 0.1 w/v % of BSA and 0.9 mM of CaCl2) to form a suspension having a concentration of 10^8 /460 μl. 20 μl of a solution of the test compound in the binding buffer was placed in a polypropylene tube and then 460 μl of the platelet suspension was added thereto. The mixture was subjected to a vortex treatment and then incubated at 37° C. for 6 min. 20 μl of a solution of ^3 H-PAF in the binding buffer (final ^3 H-PAF concentration: 0.6 to 1 nM) was added thereto and the mixture was incubated for 6 min. 3 ml of a washing solution (saline containing 0.1 w/v % of BSA) cooled with ice was added thereto to terminate the reaction. The reaction mixture was filtered by suction through a glass filter (Whatman GF/C). The glass filter was dried and the radioactivity thereof was determined with a liquid scintillation counter.
The inhibition % was calculated according to the following equation and IC50 so was determined by interpolation from the figure. [formula] wherein: total binding: dpm obtained when the concentration of the medicine or PAF is 0,
non-specific binding: dpm obtained when 10^-5 M of cold PAF was added.

Assay [2] deals with blood pressure drop induced by PAF. The assay can be described thus: Action on the blood pressure drop induced by PAF. Format: in vivo, F344 rats. Conditions: Rattus norvegicus, iv, 0.05 h, i.v., three minutes after 0.5 μg/kg PAF, ratio of blood pressure rise to drop, read-out: Recovery rate. As to the method:
Action on the Blood Pressure Drop Induced by […]
Cannulae were inserted into the carotid and the jugular of each of F344 rats anesthetized with Pento (50 mg/kg, i. p.). The blood pressure was determined at the carotid and 0.5 ml/kg of PAF or the test compound was given through the jugular. Three minutes after the injection of 0.5 μg/kg of PAF, the test compound was given and the antagonism thereof was evaluated.
The recovery rate shown in Table 4 is the ratio of the blood pressure rise by the test compound to the drop thereof.

T1 sequence (P25105 whole entry): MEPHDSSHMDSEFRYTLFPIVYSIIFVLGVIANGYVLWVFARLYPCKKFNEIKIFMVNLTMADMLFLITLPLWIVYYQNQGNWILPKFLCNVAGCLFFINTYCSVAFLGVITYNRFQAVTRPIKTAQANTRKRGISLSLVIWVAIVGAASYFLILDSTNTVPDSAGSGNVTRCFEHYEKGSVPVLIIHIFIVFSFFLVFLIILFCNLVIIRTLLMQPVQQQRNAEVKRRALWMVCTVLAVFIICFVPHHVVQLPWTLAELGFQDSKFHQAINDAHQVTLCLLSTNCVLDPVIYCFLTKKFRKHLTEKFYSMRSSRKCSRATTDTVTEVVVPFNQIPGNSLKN

On to `CC[n+]1ccccc1CN(C(=O)OCC(COC(=O)NCC1CCCO1)OC)C(=O)c1ccccc1OC` (stereo not drawn) [Example 3, 1-Ethyl-2-[N-(2-methoxy)benzoyl-N-{2-methoxy-3-(2-tetrahydrofuranyl)methyl}carbamoyloxypropoxycarbonyl]aminomethylpyridinium chloride], for which the values for the IC50 (in assay [1]; at Human PAF Receptor) were 0.31 µM and 0.3 µM, respectively.

Take `CC[n+]1ccccc1CN(C(=O)OCC(COC(=O)NCCc1ccc(S(N)(=O)=O)cc1)OC)C(=O)c1ccccc1OC` (stereo not drawn) [Example 8, 1-Ethyl-2-[N-(2-methoxy)benzoyl-N-{2-methoxy-3-(2-(4-sulfamoylphenyl)ethylcarbamoyloxy)propyloxy}carbonyl]aminomethylpyridinium iodide]: the inhibition in vivo at 0.01 mg/kg in assay [2] (0.01 mg/kg) was 70.1%. In assay [2] (0.1 mg/kg), the inhibition in vivo at 0.1 mg/kg worked out at 96.7%. For the same compound, the IC50 (in general, the point on the concentration scale where inhibition reaches its midpoint) in assay [1] came out at 0.11 µM; on Human PAF Receptor, 0.14 µM.

In the case of `CC[n+]1ccccc1CN(C(=O)OCC(COC(=O)NCc1ccc(S(=O)(=O)NCC2CCCCC2)cc1)OC)C(=O)c1ccccc1OC` (stereo not drawn) [Example 12, 1-Ethyl-2-[N-{3(4-cyclohexylmethylsulfamoyl)benzylcarbamoyloxy-2-methoxypromyloxy}carbonyl-N-(2-methoxy)benzoyl]aminomethylpyridinium chloride], the IC50 in assay [1] stood at 0.031 µM.

Consider `CC[n+]1ccccc1CN(C(C)=O)C(=O)OCC(COC(=O)Nc1cc(OC)c(OC)c(OC)c1)OC` (stereo not drawn) [Example 1, 1-Ethyl-2-[N-acetyl-N-{2-methoxy-3-(3,4,5-trimethoxy)phenylcarbamoyloxypropoxy}carbonyl]aminomethylpyridinium iodide], for which, in assay [2] (1.0 mg/kg), the inhibition in vivo at 1 mg/kg is 21.7%. The IC50 in assay [1] was 0.38 µM.

As to `CCOC(=O)C1CCC(CNC(=O)OCC(COC(=O)N(Cc2cccc[n+]2CC)C(=O)c2ccccc2OC)OC)CC1` (stereo not drawn) [Example 7, 1-Ethyl-2-[N-{3-(4-ethoxycarbonyl)cyclohexylmethyl-carbamoyloxy-2-methoxy}propyloxycarbonyl-N-(2-methoxy)benzoyl]aminomethylpyridinium iodide], the IC50 in assay [1] was found to be 2.6 µM.

As to `CC[n+]1ccccc1CN(C(=O)OCC(COC(=O)NCCCC(=O)N1CCOCC1)OC)C(=O)c1ccccc1OC` (stereo not drawn) [Example 9, 1-Ethyl-2-[N-(2-methoxy)benzoyl-N-{3-(3-morpholinocarbonylpropan-1-yl)carbamoyloxy-2-methoxypropyloxy}carbonyl]aminomethylpyridinium chloride], the IC50 in assay [1] was 0.26 µM; at Human PAF Receptor it was 0.79 µM.

For `CCCCCCCCCCCCCCCCCC(=O)N1CCN(C(=O)OCC(COC(=O)N(Cc2cccc[n+]2CC)C(=O)c2ccccc2OC)OC)CC1` (stereo not drawn) [Example 11, 1-Ethyl-2-[N-(2-methoxy)benzoyl-N-(2-methoxy-3-(4-stearoylpiperazinocarbonyl)oxypropyloxy}carbonyl]aminomethylpyridinium iodide], the IC50 in assay [1] is 0.086 µM; at Human PAF Receptor it was 0.025 µM.

As for `CC[n+]1ccccc1CN(C(=O)OCC(COC(=O)NCCCCCCCCCCNC(=O)N(C)C)OC)C(=O)c1ccccc1OC` (stereo not drawn) [Example 5, 1-Ethyl-2-[N-{3-(10-N,N-dimethylcarbamylamino)decylcarbamoyloxy-2-methoxypropyloxy}carbonyl-N-(2-methoxy)benzoyl]aminomethylpyridinium chloride], the IC50 in assay [1] came to 0.21 µM; on Human PAF Receptor, 0.0019 µM.

Consider `CCCCCCCCCCCCCCCCCCOCCCNC(=O)OCC(COC(=O)N(Cc1cccc[n+]1CC)C(=O)c1ccccc1OC)OC` (stereo not drawn) [Example 4, 1-Ethyl-2-[N-(2-methoxy)benzoyl-N-{2-methoxy-3-(3-octadecyloxy)propylcarbamoyloxy}propoxycarbonyl]-aminomethylpyridinium chloride], for which the IC50 in assay [1] is 0.14 µM; on Human PAF Receptor, 0.0035 µM.
